# Measurements as given in US20200368234A1, “PHOTORECEPTOR GENE MODULATOR PHOTOREGULIN 3 FOR TREATMENT OF RETINAL DISEASE” (University of Washington, priority 2017, published 2020).
# “Also recorded” adds a separate entry of the source.
# Columns and labels:
# rod photoreceptor genes = experiment: RNA sequencing of retinas of wild type mice after intraperitoneal PR3; assay type: in vivo; conditions: 10 mg/kg i.p. at P12, retinas collected 24 h later
# Experimental: Nr2e3 signaling is important for rod photoreceptor cell fate, development and maturation, and maintenance of expression. To determine the effect of PR3 treatment on gene expression in postmitotic retinal cells, wild type mice were systemically treated (intraperitoneal injection) with PR3 or vehicle at P12. At P13, 24 h after the injection, the retinas were collected for global transcriptome analysis by RNA sequencing.
# (§1) Photoregulin3 was identified by searching previous small molecule screens with SciFinder and PubChem for Nr2e3 interacting molecules. It was initially obtained from ChemDiv and then synthesized and purified in large quantities in the lab after initial screening. For in vivo experiments, mice were injected intraperitoneally with PR3 dissolved in DMSO at 10 mg/kg.
# RNA from retinas was isolated using TRIzol (Invitrogen) and total RNA integrity was checking using an Agilent 4200 TapeStation and quantified using a Trinean DropSense96 spectrophotometer. RNA-seq libraries were prepared from total RNA using the TruSeq RNA Sample Prep kit (Illumina) and a Sciclone NGSx Workstation (PerkinElmer). Library size distributions were validated using an Agilent 4200 TapeStation. Additional Library quality control, blending of pooled indexed libraries, and cluster optimization were performed using Life Technologies' Invitrogen Qubit Fluorometer. RNA-seq libraries were pooled (4-plex) and clustered onto a flow cell lane. Sequencing was performed using an Illumina HiSeq 2500 in rapid mode employing a paired-end, 50 base read length (PE50) sequencing strategy.
# Rho^P23H mice = experiment: ERG visual function in Rho^P23H mice at P21; assay type: in vivo, mouse; conditions: 10 mg/kg PR3, vs littermate DMSO controls
# Experimental: FIG. 4A compares scotopic b-wave amplitudes from P21 Rhodopsin^P23H mice treated with 10 mg/kg PR3 or DMSO vehicle (n=4-8, *p<0.05, t-test).
# FIG. 4D compares photopic b-wave amplitudes from P21 Rhodopsin^P23H mice treated with 10 mg/kg PR3 or DMSO vehicle (n=4-8, *p<0.05, t-test).
# To determine whether photoreceptor degeneration can be prevented, Rho^P23H mice were treated with PR3 or vehicle from P12-P14 until P21, during the period of rod photoreceptor death (FIG. 3A). At P21, visual function was assessed with ERGs and euthanized the mice for histological and qPCR analyses. At P21, control Rho^P23H mice had only 2-3 rows of photoreceptors remaining in their ONL (FIGS. 3B and 3C). Rods were sparse and there were few remaining cones (S Opsin+ and Cone Arrestin+ photoreceptors). Control Rho^P23H mice had minimal scotopic and photopic b-wave amplitudes by ERG analysis (FIGS. 4A, 4B, 4D, and 4E). […] The surviving cones in the PR3-treated retinas were more elongated and healthier than in the DMSO control retinas.
# as §1, with “mg/kg. […]” for “mg/kg.”
# photoreceptors = experiment: Electron microscopy of photoreceptor morphology in wild type mice after PR3; assay type: in vivo; conditions: 10 mg/kg i.p. for 3 consecutive days from P11, EM at P14
# Experimental: FIG. 2C compares electron microscope micrographs of retinal sections of wild type mice treated with 10 mg/kg PR3 or DMSO vehicle. Compared to controls, PR3 retinas have arrested inner and outer segment development and less compact heterochromatin in the ONL. Scale bars represent 10 μm (top) and 2 μm (bottom).
# Electron microscopy (EM) was used to perform an ultrastructural analysis of photoreceptor morphology after PR3 treatment. Wild type mice were intraperitoneally injected with vehicle or PR3 for 3 consecutive days starting at P11. At P14, 24 h after the third injection, the mice were euthanized and processed their retinas for EM. Photoreceptor outer segments begin to form during the second and third postnatal week; genetic loss-of-function mutations in Nr2e3 lead to an impairment in rod outer segment formation.
# as §1
# Mice were euthanized by CO2, and then perfused with 0.9% saline followed by 4% glutaraldehyde in 0.1 M sodium cacodylate buffer. Eye cups were fixed in 4% glutaraldehyde in 0.1 M sodium cacodylate buffer, washed with 0.1 M sodium cacodylate buffer, and then post-fixed in 2% osmium tetroxide. After fixation, eye cups were washed with water, dehydrated through a graded series of ethanol, incubated in propylene oxide and then epon araidite, polymerized overnight at 60° C., and then sectioned at a thickness of 70 nm. Images were obtained using a JEOL JEM-1230 electron microscope.
# [1] = test system: S Opsin+ cells in the ventral retina; experiment: S Opsin+ cell count in intact retinal explant cultures; assay type: cell-based; conditions: P11 mouse intact retina explants, 0.3 μM PR3, 3 DIV, vs DMSO
# Text: Scale bar represents 50 μm. E. PR3-treated retinas had more S Opsin+ cells per 100 μm×100 μm field in the ventral retina compared to DMSO-treated retinas (n=3, *p<0.05, Student's t-test).
# FIG. 1E is a graph quantifying the effects of PR3 on S-opsin expression; treatment conditions were the same as those in FIG. 1D. S-opsin+ cones are predominantly present in the ventral retina of mice.
# Mutations in Nr2e3 result in an increased number of S Opsin+ photoreceptors as well as a reduction in rod gene expression. To determine if PR3 treatment also affects cone gene expression, intact retinas were explanted from P11 wild type mice in media containing DMSO or PR3 for 3 days. Intact retinas were used for this experiment to assess changes in dorsal and ventral retina independently. After fixation and whole mount immunostaining, S Opsin+ cells were counted in the ventral retina.
# Intact retinas without RPE from P11 C57Bl/6 mice were explanted on 0.4 μm pore tissue culture inserts in media (Neurobasal-A containing 1% FBS, 1% N2, 1% B27, 1% Pen/Strep, and 0.5% L-Glutamine) containing DMSO or 0.3 μM Photoregulin3. Full media changes were performed every other day. […] Cells were counted from single plane confocal images taken at fixed settings.
smiles,measurement,setting,value
COc1cc2nc(CN3CC=C(c4ccccc4)CC3)nc(O)c2cc1OC [PR3],cone gene expression (RNA sequencing),rod photoreceptor genes,large and global increases in cone gene expression were not observed
same,"toxicity to retinal cells (cell death and cell stress genes, RNA sequencing)",rod photoreceptor genes,not toxic to retinal cells
same,rod photoreceptor gene expression (RNA sequencing),rod photoreceptor genes; 10 mg/kg,robust reduction in rod photoreceptor genes; also recorded: decrease in most rod photoreceptor-specific transcripts
same,photopic b-wave amplitudes (ERG),Rho^P23H mice,significantly elevated
same,scotopic b-wave amplitudes (ERG),Rho^P23H mice,significantly elevated
same,heterochromatin of rod nuclei (EM),photoreceptors,smaller patches of densely packed heterochromatin compared to DMSO retinas
same,photoreceptor apoptosis / cell death in ONL nuclei (EM),photoreceptors,not due to an increase in cell death
same,photoreceptor outer segment development (EM),photoreceptors,prevented outer segment development
same,S Opsin+ cells per 100 μm×100 μm field in the ventral retina,[1],significantly more S Opsin+ cells per 100 μm×100 μm field in the ventral retina compared to DMSO-treated retinas; also recorded: increase in the number S Opsin+ cells in the ventral retina
